Data taken from patent publication US5089479A, “Adhesion of Mycoplasma pneumoniae and Mycoplasma hominus to sulfatide” (priority 1988, dated 1992).
Entries after “also recorded” stand apart in the source; their conditions may differ.

Experiments:
[1] = molecular target: M. pneumoniae binding to sulfatide; assay: Inhibition of M. pneumoniae binding to sulfatide adsorbed on plastic; set-up: species or system Mycoplasma pneumoniae strain M129; details: for inhibition of binding to sulfatide (in words): sulfatide adsorbed on plastic
Protocol: Virulent M. pneumoniae strain M129, passage 5-15, were grown and metabolically labelled with [^3 H]palmitic acid, 12-17 Ci/mole, as described by Chandler et al. in Infect. Immun. 37: 942, 1982. The organisms were passed four times through a 26 gauge needle and suspended to approximately 10^7 cpm/ml of degassed RPMI 1640 medium containing 1% bovine serum albumin and 25 mM HEPES, pH 7.3.
The binding of M. pneumoniae to purified glycolipids immobilized in microtiter plates was measured as described by Krivan et al. in Proc. Natl. Acad. Sci., op. cit. Purified glycolipids were serially diluted in 25 μl of methanol containing 0.1 μg each of the auxiliary lipids cholesterol and phosphatidylcholine. After the solutions were dried by evaporation, the wells were filled with TBS-BSA, emptied after one hour, rinsed with RPMI-BSA, and incubated with 25 μl of [^3 H]-M. pneumoniae, approximately 10^7 cpm/ml RPMI-BSA. After incubation for two hours at 37° C., unless otherwise stated, the wells were washed five times with saline and bound M. pneumoniae was quantified by scintillation counting in Aquasol. For inhibition studies, various polysaccharides were serially diluted in […] of [^3 H]-M. pneumoniae.
To obtain the results shown in FIG. 4, polysaccharides were serially diluted in 25 μl of RPMI-BSA in microtiter wells previously coated with 1 μg of purified sulfatide. Binding was determined after incubation of two hours at 37° C. with 25 μl of [^3 H]-M. pneumoniae with the indicated concentration of dextran ( .circle. ) or dextran sulfate.

[2] = tested on: M. pneumoniae adhesion to WiDr cells; assay: Inhibition of M. pneumoniae adhesion to WiDr human colon adenocarcinoma cell monolayers; type: cell-based; details: WiDr cells
Protocol: (§1) Adhesion of [^3 H]-M. pneumoniae to cells on glass covered slips was measured by a modification of a method previously described by Chandler et al., Infect. Immun., op. cit. WiDr human colon adenocarcinoma, ATCC CCL 218 was grown in Eagle's minimal essential medium with 10% fetal calf serum in a 5% CO2 atmosphere at 37° C. The cells were removed with trypsin and plated on 12 mm round glass coverslips in 24-well tissue culture plates and grown for three days. Control coverslips were preincubated in medium without cells. The coverslips were washed in serum-free medium, then incubated in RPMI-BSA for fifteen minutes. The medium was removed and labelled M. pneumoniae suspended in 0.5 ml of RPMI-BSA were added to each well. The plates were incubated on a rocking table for 60 minutes at 37° C. The coverslips were washed by dipping in saline six times, and the bound radioactive bacteria were determined by scintillation counting. For inhibition studies, the inhibitors were added to M. pneumoniae prior to adding the bacteria to the coverslips.
Because virulent strains of M. pneumoniae adhere to mammalian cells, monolayers of WiDr cells were used to determine if dextran sulfate inhibits adhesion of the organism. [^3 H] -labelled M. pneumoniae was incubated with WiDr cell monolayers attached to coverslips in triplicate with an without dextran sulfate, as shown in Table II. […] In each experiment, 10 μg/ml dextran sulfate inhibited more than 1 μg/ml, but 100 μg/ml dextran sulfate caused no further inhibition. Thus, maximal inhibition was obtained with approximately 10 μg/ml of dextran sulfate. Similar results were obtained with MRC5 lung fibroblasts where in three experiments a mean of 47% of M. pneumoniae adhesion was inhibited by dextran sulfate.
(§2) Adhesion of labelled M. pneumoniae to WiDr cells on glass cover slips was determined as described previously. For inhibition studies, dextran sulfate and 3'-sialyllactose were dissolved in RPMI-BSA and the pH was adjusted to 7.4 with NaOH. The inhibitors were added to wells containing washed cover slips with attached WiDr cells or blank cover slips preincubated in medium or tris-BSA. Labelled M. pneumoniae were added immediately and incubated with slow rocking for sixty minutes at 37° C. After the coverslips were washed by dipping six times in saline, bound M. pneumoniae were determined by scintillation counting in Aquasol. […] After washing to remove the unbound organisms, the bound mycoplasma were determined by scintillation counting. Binding to uncoated wells was 3% of the applied radioactivity.
Adhesion of [^3 H]-M. pneumoniae to WiDr cells growing on 13 mm glass cover slips was determined as described above. Inhibition by dextran sulfate or 3'-sialyllactose at the indicated concentrations was calculated relative to control binding determined in RPMI/BSA without inhibitors. The results are presented as percent inhibition (mean±S.D. n=4 with n=8 for determination of control binding without inhibitor).

[3] = tested on: M. pneumoniae adhesion to MRC5 lung fibroblasts; assay: Inhibition of M. pneumoniae adhesion to MRC5 lung fibroblasts; type: cell-based, human; details: mean of three experiments
Protocol: as §1
Because virulent strains of M. pneumoniae adhere to mammalian cells, monolayers of WiDr cells were used to determine if dextran sulfate inhibits adhesion of the organism. [^3 H] -labelled M. pneumoniae was incubated with WiDr cell monolayers attached to coverslips in triplicate with an without dextran sulfate, as shown in Table II. […]

[4] = molecular target: M. pneumoniae binding to laminin; assay: Inhibition of M. pneumoniae binding to laminin adsorbed on plastic; set-up: species or system Mycoplasma pneumoniae strain M129; details: laminin adsorbed on plastic
Protocol: (§3) Glycoproteins dissolved in 0.01 M sodium phosphate buffer, pH 7.4, containing 150 mM NaCl, 1 mM CaCl2, and 0.01% NaN3 were adsorbed onto plastic polyvinylchloride […] microtiter plates by incubation for 16 hours at 4° C. The unbound proteins were removed, and the wells were filled with tris-BSA and incubated for 30 minutes at room temperature. The wells were rinsed with RPMI1640 containing 25 mM HEPES, pH 7.3, and 1% bovine serum albumin. M. pneumoniae strain M129 labelled with [^3 H]-palmitate were dispersed in RPMI-BSA by passing four times through a 26 gauge needle, and 50 μl of the suspension was applied to the wells. After incubation for 60 minutes at 37° C., the wells were washed five times with saline and the labelled M. pneumoniae bound to the proteins were quantified by scintillation counting in Aquasol.
For inhibition studies, sugars in 25 μl of RPMI-BSA were added to wells coated with 10 μg/ml laminin followed by 25 μl of [^3 H]-M. pneumoniae. Binding was determined to both laminin-coated and uncoated wells in triplicate at each inhibitor concentration and in the absence of inhibitor. In some experiments, the adsorbed proteins were pretreated with neuraminidase. After adsorption of the proteins and incubation in tris-BSA, the wells were rinsed three times with 50 mM sodium acetate, pH 5.5, containing 150 mM NaCl, 5 mM CaCl2, 1 mg/ml bovine serum albumin, and 1 mM phenylmethanesulfonyl fluoride. The wells were incubated with 0.05 units/ml neuraminidase in the same buffer or with buffer without enzyme overnight at 20° C. The wells were rinsed three times with tris-BSA, and M. pneumoniae binding was determined as described above.

[5] = tested on: M. pneumoniae adhesion to coverslips; assay: Inhibition of nonspecific adhesion of M. pneumoniae to coverslips without cells; type: binding, Mycoplasma pneumoniae strain M129; details: coverslips preincubated in medium containing fetal calf serum
Protocol: as §1, §2

[6] = tested on: M. hominus binding to sulfatide; assay: Inhibition of M. hominus binding to purified sulfatide; set-up: species or system Mycoplasma hominus
[7] = tested on: M. hominus adhesion to human colon adenocarcinoma cells; assay: Inhibition of M. hominus adhesion to cultured human colon adenocarcinoma cells; type: cell-based
M. pneumoniae = M. pneumoniae adhesion to immobilized glycoproteins adsorbed on plastic; type: binding, Mycoplasma pneumoniae strain M129; details: for M. pneumoniae adhesion to immobilized glycoprotein (in words): adsorbed on plastic
Protocol: as §3, with “Aquasol. […]” for “Aquasol.”

[8] = tested on: monoclonal antibody My-28; assay: Binding of monoclonal antibody My-28 to immobilized proteins after neuraminidase; details: neuraminidase-treated, adsorbed on plastic
Protocol: Binding of monoclonal antibody My-28 to the immobilized proteins before or after digestion with neuraminidase was determined using a 1:1000 dilution of ascites fluid in tris-BSA. After incubation for two hours at room temperature, the wells were washed three times with tris-BSA. Bound antibody was detected using goat anti-mouse IgM labelled with ^125 I by the Iodogen method.

[9] = tested on: erythrocyte adhesion to M. pneumoniae; details: relative to fetuin; Loomes et al.; cited from earlier work

With dextran sulfate the “concentration inhibiting binding to sulfatide by 50%” value ([1]; 1 μg sulfatide, 37° C., 2 hours) was 0.4 µg/mL, the “inhibition of binding to sulfatide at 1 μg/ml (in words)” value ([1]; 1 μg/ml) was “completely abolished binding” and the “inhibition of binding to sulfatide (in words)” value [1] was “potent inhibitor; also recorded: completely inhibits binding”. For the same molecule, the “inhibition of binding to sulfatide (in words)” value ([1]; listed as Dextran sulfate) was “inhibits M. pneumoniae binding to sulfatide”, the “concentration giving maximal inhibition of adhesion” value [2] was “approximately 10 μg/ml” and the “inhibition of adhesion to WiDr cells (in words)” value [2] was “partially inhibit; also recorded: only partially inhibited; also recorded: partially inhibits adhesion; also recorded: partial inhibition”. The “inhibition of adhesion to WiDr cells (in words)” value ([2]; listed as Dextran sulfate) was “inhibited adhesion in all three experiments”, the “inhibition of M. pneumoniae adhesion” value [3] was 47% and the “I.D.50, substrate laminin” value [4] was > 200 µg/mL. The “inhibition of binding to laminin (in words)” value [4] was “no effect”, the “inhibition of binding to laminin (in words)” value ([4]; listed as Dextran sulfate) was “does not inhibit attachment on laminin” and the “inhibition of non-specific adhesion to coverslips (in words)” value [5] was “not by dextran sulfate”. For the same molecule, the “inhibition of M. hominus binding to sulfatide (in words)” value [6] was “completely inhibits binding” and the “inhibition of M. hominus adhesion (in words)” value [7] was “partially inhibits adhesion”.

B1: Human type MM glycophorin: glycoprotein (protein, UniProt P02724 20-150, looked up)
Glycophorin-A: LSTTEVAMHTSTSSSVTKSYISSQTNDTHKRDTYAATPRAHEVSEISVRTVYPPEEETGERVQLAHHFSEPEITLIIFGVMAGVIGTILLISYGIRRLIKKSPSDVKPLPSPDTDVPLSSVEIENPETSDQ
modifications: MM blood type
notes: glycoprotein
In the case of B1, the “M. pneumoniae adhesion to immobilized glycoprotein (in words)” value (M. pneumoniae; listed as Glycophorin) is reported as “weakly active”, the “M. pneumoniae adhesion to immobilized glycoprotein (in words)” value (M. pneumoniae; listed as glycophorin) is reported as “neither protein binds M. pneumoniae well” and the Relative binding activity (M. pneumoniae; relative to fetuin = 1.0, from amount for half maximal binding, mean of 2 or 3 experiments) is reported as 0.06. The “My-28 antibody binding after neuraminidase digestion (in words)” value [8] was “about ten-fold less” and the “inhibition of erythrocyte adhesion to M. pneumoniae (in words)” value [9] was “inhibit erythrocyte adhesion to M. pneumoniae better than fetuin”.
